This passage reports IC50 results from patent US20250276982A1, “KRAS INHIBITORS” (ASCENTAGE PHARMA (SUZHOU) CO., LTD., priority 2021, published 2025).

Assay [1] concerns GP2d cells. The assay can be described thus: Cellular proliferation assay in GP2d cells (CellTiterGlo luminescent cell viability assay). It is filed as cell-based. The following applies: 72 hours treatment, CellTiter-Glo. How it is done:
Example 32: Cellular Proliferation Assay in GP2d Cells
The inhibitory effect of test compounds on cellular proliferation was determined using CellTiterGlo® luminescent cell viability assay (Promega) following manufacturer's instruction.
GP2d cells (ECACC #95090715) were cultured in DMEM medium supplemented with 10% fetal bovine serum, 10 U/ml penicillin and 10 ug/ml streptomycin. Cells were plated in 96-well plates at a density of 2000 cells/well and allowed attach for […]. Then the cells were treated with various concentrations of test compounds for 72 hours. CellTiter-Glo® Reagent was added to wells and incubated for 10 minutes at room temperature. The plates were read on GloMax® 96 Microplate Luminometer or compatible microplate readers. The percentage of cellular viability was calculated as: […]

Assay [2] deals with p-ERK in AGS cells. Kind of assay: p-ERK assay in AGS cells (fixed cells, anti-p-ERK / β-Actin antibodies, IR imaging). Type of assay: cell-based. The settings on record: Homo sapiens, 3 h at 37° C., p-ERK detected by antibody with β-Actin, IR fluorescence. How it is done: The expression of p-ERK was detected in this assay. At first, the AGS cells (40000 cells/well) were seeded in 96-well plate culture overnight and treated with KRAS-G12D compounds inhibitors at concentrations of 1, 0.33, 0.11, 0.03, 0.01, 0.004, 0.001, 0.0004, 0.0001 μM for 3 h at 37° C. Then, add an equal volume (100 μL) of 8% paraformaldehyde solution to fix and crosslink the cells to the microplate for 15 minutes. Add 100 μL of 1× permeabilization solution to wells for 30 min and add 100 μL of 1× blocking solution for 2 h. Wash with PBS 3 times after each reaction. At last, Incubation with primary antibody (Anti-mouse β-Actin and Anti-rabbit p-ERK) and secondary antibody (Goat anti-Mouse IgG H&L IRDye 800CW and Goat anti-Rabbit IgG H&L IRDye 680RW) for 2 h, As appropriate, image the microplate with an IR scanner or develop the HRP labeled microplate and read it with a spectrophotometer. The fluorescence signal was monitored using a microplate reader (Azure biosystems, Sapphire biomolecular imager) using excitation and emission wavelengths of 680 and 800 nm, respectively. Export data. The inhibitor dose-reponse curves were analyzed using normalized IC50 regression curve fitting with control based normalization.

Each structure is given as a SMILES string.

Broadly, the IC50 is the concentration that gives 50% inhibition. High values mean weaker potency in that assay, low ones greater potency in that assay. For the compound `Fc1c(-c2cccc3ccc4c(c23)CCO4)ncc2c(N3C[C@H]4CC[C@@H](C3)N4)nc(OC[C@@]34CCCN3C[C@H](F)C4)nc12` [Example 3, 4-((1R,5S)-3,8-diazabicyclo[3.2.1]octan-3-yl)-7-(1,2-dihydronaphtho[2,1-b]furan-9-yl)-8-fluoro-2-(((2R,7aS)-2-fluorotetrahydro-1H-pyrrolizin-7a(5H)-yl)methoxy)pyrido[4,3-d]pyrimidine], the IC50 in assay [1] and in assay [2] was 8.8 µM throughout.
On to `Fc1c(-c2cccc3ccc4occc4c23)ncc2c(N3C[C@H]4CC[C@@H](C3)N4)nc(OC[C@@]34CCCN3C[C@H](F)C4)nc12` [Example 4, 4-((1R,5S)-3,8-diazabicyclo[3.2.1]octan-3-yl)-8-fluoro-2-(((2R,7aS)-2-fluorotetrahydro-1H-pyrrolizin-7a(5H)-yl)methoxy)-7-(naphtho[2,1-b]furan-9-yl)pyrido[4,3-d]pyrimidine], for which the half-inhibitory concentration (IC50) worked out at 4.75 µM in assay [1] and 4.9 µM in assay [2].
For `Oc1cc(-c2ncc3c(N4C[C@H]5CC[C@@H](C4)N5)nc(OC[C@@]45CCCN4C[C@H](F)C5)nc3c2F)c2c(ccc3occc32)c1` [Example 5, 9-(4-((1R,5S)-3,8-diazabicyclo[3.2.1]octan-3-yl)-8-fluoro-2-(((2R,7aS)-2-fluorotetrahydro-1H-pyrrolizin-7a(5H)-yl)methoxy)pyrido[4,3-d]pyrimidin-7-yl)naphtho[2,1-b]furan-7-ol] the same measures were 2.86 µM and 0.037 µM.
For `Oc1cc(-c2ncc3c(N4C[C@H]5CC[C@@H](C4)N5)nc(OC[C@@]45CCCN4C[C@H](F)C5)nc3c2F)c2c3c(ccc2c1)OCC3` [Example 6, 9-(4-((1R,5S)-3,8-diazabicyclo[3.2.1]octan-3-yl)-8-fluoro-2-(((2R,7aS)-2-fluorotetrahydro-1H-pyrrolizin-7a(5H)-yl)methoxy)pyrido[4,3-d]pyrimidin-7-yl)-1,2-dihydronaphtho[2,1-b]furan-7-ol] the same measures were 9.29 µM and 0.588 µM.
Taken in the same sequence, the figures for `Oc1cc(-c2ncc3c(N4CC5CCC4CN5)nc(OC[C@@]45CCCN4C[C@H](F)C5)nc3c2F)c2c3c(ccc2c1)CCC3` (stereo partly drawn) [Example 7, 9-(4-(2,5-diazabicyclo[2.2.2]octan-2-yl)-8-fluoro-2-(((2R,7aS)-2-fluorotetrahydro-1H-pyrrolizin-7a(5H)-yl)methoxy)pyrido[4,3-d]pyrimidin-7-yl)-2,3-dihydro-1H-cyclopenta[a]naphthalen-7-ol] were 0.92 µM and 0.149 µM.
Regarding `CN(C)CC1(COc2nc(N3C[C@H]4CC[C@@H](C3)N4)c3cnc(-c4cc(O)cc5ccc6c(c45)CCC6)c(F)c3n2)CC1` [Example 8, 9-(4-((1R,5S)-3,8-diazabicyclo[3.2.1]octan-3-yl)-2-((1-((dimethylamino)methyl)cyclopropyl)methoxy)-8-fluoropyrido[4,3-d]pyrimidin-7-yl)-2,3-dihydro-1H-cyclopenta[a]naphthalen-7-ol], the IC50 in assay [1] worked out at 0.284 µM; in assay [2], 0.041 µM.
On to `Oc1cc(-c2ncc3c(N4C[C@H]5CC[C@@H](C4)N5)nc(OCC4(CN5CCOCC5)CC4)nc3c2F)c2c3c(ccc2c1)CCC3` [Example 9, 9-(4-((1R,5S)-3,8-diazabicyclo[3.2.1]octan-3-yl)-8-fluoro-2-((1-(morpholinomethyl)cyclopropyl)methoxy)pyrido[4,3-d]pyrimidin-7-yl)-2,3-dihydro-1H-cyclopenta[a]naphthalen-7-ol], for which the half-maximal inhibitory concentration (IC50) was 0.175 µM in assay [1] and 0.031 µM in assay [2].
For `Oc1cc(-c2ncc3c(N4C[C@H]5CC[C@@H](C4)N5)nc(OCCCN4C5CCC4COC5)nc3c2F)c2c3c(ccc2c1)CCC3` [Example 10, 9-(2-(3-(3-oxa-8-azabicyclo[3.2.1]octan-8-yl)propoxy)-4-((1R,5S)-3,8-diazabicyclo[3.2.1]octan-3-yl)-8-fluoropyrido[4,3-d]pyrimidin-7-yl)-2,3-dihydro-1H-cyclopenta[a]naphthalen-7-ol] the same measures were 0.261 µM and 0.205 µM.
Taken in the same sequence, the figures for `C[C@@H]1COCCN1CC1(COc2nc(N3C[C@H]4CC[C@@H](C3)N4)c3cnc(-c4cc(O)cc5ccc6c(c45)CCC6)c(F)c3n2)CC1` [Example 11, 9-(4-((1R,5S)-3,8-diazabicyclo[3.2.1]octan-3-yl)-8-fluoro-2-((1-(((R)-3-methylmorpholino)methyl)cyclopropyl)methoxy)pyrido[4,3-d]pyrimidin-7-yl)-2,3-dihydro-1H-cyclopenta[a]naphthalen-7-ol] were 0.169 µM and 0.135 µM.
For `C[C@@H](COc1nc(N2C[C@H]3CC[C@@H](C2)N3)c2cnc(-c3cc(O)cc4ccc5c(c34)CCC5)c(F)c2n1)CN1C2CCC1COC2` [Example 12, 9-(2-((2R)-3-(3-oxa-8-azabicyclo[3.2.1]octan-8-yl)-2-methylpropoxy)-4-((1R,5S)-3,8-diazabicyclo[3.2.1]octan-3-yl)-8-fluoropyrido[4,3-d]pyrimidin-7-yl)-2,3-dihydro-1H-cyclopenta[a]naphthalen-7-ol] the same measures were 0.0484 µM and 0.017 µM.
Turning to `CC1(O)CCCN(c2nc(OCC34CCCN3C[C@H](F)C4)nc3c(F)c(-c4cc(O)cc5ccc6c(c45)CCC6)ncc23)C1` (stereo partly drawn) [Example 13, 1-(8-fluoro-2-(((2R)-2-fluorotetrahydro-1H-pyrrolizin-7a(5H)-yl)methoxy)-7-(7-hydroxy-2,3-dihydro-1H-cyclopenta[a]naphthalen-9-yl)pyrido[4,3-d]pyrimidin-4-yl)-3-methylpiperidin-3-ol], the results for the IC50 in assay [1] and in assay [2] were 0.01 µM and 0.022 µM, respectively.
For `CC1CCc2ccc3cc(O)cc(-c4ncc5c(N6C[C@H]7CC[C@@H](C6)N7)nc(OC[C@@]67CCCN6C[C@H](F)C7)nc5c4F)c3c21` (stereo partly drawn) [Example 14, 9-(4-((1R,5S)-3,8-diazabicyclo[3.2.1]octan-3-yl)-8-fluoro-2-(((2R,7aS)-2-fluorotetrahydro-1H-pyrrolizin-7a(5H)-yl)methoxy)pyrido[4,3-d]pyrimidin-7-yl)-1-methyl-2,3-dihydro-1H-cyclopenta[a]naphthalen-7-ol] the same measures were 0.429 µM and 0.085 µM.
Regarding `Oc1cc(-c2ncc3c(N4C[C@H]5CC[C@@H](C4)N5)nc(OC[C@@]45CCCN4C[C@H](F)C5)nc3c2F)c2c(ccc3ccsc32)c1` [Example 15, 9-(4-((1R,5S)-3,8-diazabicyclo[3.2.1]octan-3-yl)-8-fluoro-2-(((2R,7aS)-2-fluorotetrahydro-1H-pyrrolizin-7a(5H)-yl)methoxy)pyrido[4,3-d]pyrimidin-7-yl)naphtho[1,2-b]thiophen-7-ol], the IC50 came to 0.541 µM in assay [1] and 0.159 µM in assay [2].
For `Oc1cc(-c2ncc3c(N4C[C@H]5CC[C@@H](C4)N5)nc(OC[C@@]45CCCN4C[C@H](F)C5)nc3c2F)c2c(c1)cc1n2CCC1` [Example 19, 5-(4-((1R,5S)-3,8-diazabicyclo[3.2.1]octan-3-yl)-8-fluoro-2-(((2R,7aS)-2-fluorotetrahydro-1H-pyrrolizin-7a(5H)-yl)methoxy)pyrido[4,3-d]pyrimidin-7-yl)-2,3-dihydro-1H-pyrrolo[1,2-a]indol-7-ol], it took 3.06 µM to reach half-maximal inhibition in assay [1] (IC50). This counts as single-digit micromolar.
On the same count and under the same terms, with `Oc1cc(-c2ncc3c(N4C[C@H]5CC[C@@H](C4)N5)nc(OC[C@@]45CCCN4C[C@H](F)C5)nc3c2F)c2c(ccn3cccc23)c1` [Example 22, 10-(4-((1R,5S)-3,8-diazabicyclo[3.2.1]octan-3-yl)-8-fluoro-2-(((2R,7aS)-2-fluorotetrahydro-1H-pyrrolizin-7a(5H)-yl)methoxy)pyrido[4,3-d]pyrimidin-7-yl)pyrrolo[2,1-a]isoquinolin-8-ol] the figure was 3.34 µM; with `Oc1cc(-c2cc3nc(OC[C@@]45CCCN4C[C@H](F)C5)nc(N4C[C@H]5CC[C@@H](C4)N5)c3cn2)c2c3c(ccc2c1)CCC3` [Example 30, 9-(4-((1R,5S)-3,8-diazabicyclo[3.2.1]octan-3-yl)-2-(((2R,7aS)-2-fluorotetrahydro-1H-pyrrolizin-7a(5H)-yl)methoxy)pyrido[4,3-d]pyrimidin-7-yl)-2,3-dihydro-1H-cyclopenta[a]naphthalen-7-ol], 0.409 µM.
Same read-out and setting: to `Oc1cc(-c2c(Cl)cc3c(N4C[C@H]5CC[C@@H](C4)N5)nc(OC[C@@]45CCCN4C[C@H](F)C5)nc3c2F)c2c3c(ccc2c1)CCC3` [Example 31, 9-(4-((1R,5S)-3,8-diazabicyclo[3.2.1]octan-3-yl)-6-chloro-8-fluoro-2-(((2R,7aS)-2-fluorotetrahydro-1H-pyrrolizin-7a(5H)-yl)methoxy)quinazolin-7-yl)-2,3-dihydro-1H-cyclopenta[a]naphthalen-7-ol] belongs 0.737 µM.
